# Several values for one entry are separate records, joined by “and”; a condition that tells them apart may be missing. Equal entries are not always repeated.
# Key:
# [1] = Percutaneous permeation of urocanic acid isomers through human cadaver skin (Franz cell diffusion chambers); format: in vitro ADME; conditions: in words
# Description: Skin permeation experiments were undertaken to measure the flux of cis-UCA and the trans-UCA) through human skin. This information is required for topical delivery of cis-UCA using a TDS.
# cis-UCA was prepared by ultraviolet irradiation of solutions of trans-UCA (obtained from Sigma Chemical Co., St. Louis, MO), as described above (see Example 1 above).
# For skin permeation experiments, human cadaver skin was obtained and sectioned on a dermatome to yield a partial thickness skin of about 400 µm. Partial thickness skin samples were transferred to standard Franz cell diffusion chambers with the stratum corneum side up, and equilibrated with phosphate buffered saline (PBS) at pH 7.2. at 35°C in standard thermal blocks (Pierce Reacti-Therm).
# Three different solution of UV-irradiated UCA were prepared. All samples were mixtures of both cis-UCA and trans-UCA, contained about between 55% to 67% cis-UCA. The three different solutions (0.5 ml) were applied to the skin samples in the donor chamber of the diffusion chamber, and fractions of the receptor solution (saline) were collected and the amount of cis and trans isomers that permeated through the skin determined by standard HPLC methods. […] The tissue extracts were neutralized and aliquots analyzed by HPLC.
# [2] = system: BALB/c female mice; assay: Contact hypersensitivity, TNBS sensitization / TNCB ear challenge (ear swelling); format: in vivo; conditions: for % SUPPRESSION: TNBS 35 µg
# Description: BALB/c female mice were maintained in a specific pathogen-free colony. Age-matched mice between 8 and 12 weeks of age were maintained in filter-protected cages and fed mouse chow and water ad libitum. Lighting was controlled to provide 12 hours light-dark cycles.
# A 7% (w/v) working solution of trinitrobenzene sulfonate (TNBS) was prepared in distilled water. […] For induction of sensitization, each of 5 Balb/c mice received epicutaneous application of 35 µg of TNBS via a Hilltop chamber for 5 hours.
# A contact hypersensitivity response was elicited on day 5 by challenging the right ear of each mouse with 20 µl of 1% trinitronchlorobenzene (TNCB) (in acetone). Ear thickness was measured with a spring-loaded caliper immediately before challenge, and at 24 and 48 hours after challenge. Ear thickness was measured in mm X 10^-3.
# The statistical significance of differences in the contact hypersensitivity response between control and treated mice was determined using Student's t test for two independent variables. Each group contained five mice. Negative control mice were treated for 24 hours with 100 µl of PBS, pH 5.5, and challenged on the right ear 5 days later with 20 µl of 1% TNCB.
# The mice were then epicutaneously sensitized with 100 µl of 0.035% TNBS (w/v) in PBS, pH 5.5.
# For pretreatment plus co-administration, mice were first pretreated for 24 hours as above. Thereafter, 6000 µg of UCA (100 µl of 6% solution, 60 mg/ml in PBS pH 5.5) were placed in the Hilltop chamber along with 35 µg of TNBS.
# Sensitization with TNBS was induced as described above.
# [3] = system: Balb/c mice; assay: Contact hypersensitivity, DNCB sensitization / DNCB ear challenge (ear swelling); format: in vivo
# [4] = system: Balb/c mice; assay: Immune tolerance induction: re-sensitization with DNCB at a second skin site and re-challenge; format: in vivo; conditions: for EAR THICKNESS: DNCB 100 µg re-sensitization day 22, 24 Hours after re-challenge; for % SUPPRESSION / EAR SWELLING: DNCB day 22, 24 Hours
# Description: To induce immune tolerance, Balb/c mice were treated with CUA in gel formulation as outlined above and a sensitization response elicited in the standard manner. Two weeks later, the previously sensitized mice were re-sensitized by applying 10 µl of 1% DNCB to a second skin site on shaved backs of both control (non-sensitized) and experimental (immunosuppressed by prior treatment with CUA) mice. Both control and experimental animals were challenged 5 days later by application of 20 µl of 1% DNCB to the left ear; ear thickness measurements were made 24 hours later.
# Balb/c mice (N=8) were pretreated for 24 hours with 1% CUA in HPMC gel or 5% CUA in HPMC gel on the shaved abdominal skin (site 1), and challenged on the right ear five days later. The CUA-treated mice were immunosuppressed as shown in Table X. The same mice were re-sensitized with DNCB on a demarcated area of their shaved backs and rechallenged five days later on their left ears, and the ear thickness measured 24 hours post-challenge.
# [5] = system: inflamed skin; assay: Anti-inflammatory effect on bee-sting inflamed skin (single human subject); format: in vivo
# Description: A subject was stung by a bee on the medial aspect of the lower portion of the right leg. Within one hour the skin site surrounding the bite became inflamed and an allergic reaction of the delayed hypersensitivity type was seen 24 hours later. […] This response persisted for several days.
# The affected area was treated by application of 2% cis-UCA in a gel formulation (hydroxylpropylmethyl cellulose) to a 2-3 cm^2 area of inflamed skin. For a control, a similarly sized area of inflamed skin received the same hydroxylpropylmethyl cellulose gel without cis-UCA. Both treated areas were covered with a transparent dressing.
# [6] = system: dermal mast cells; assay: Chymase depletion from mast cells in skin organ cultures (immunohistochemical staining); format: cell-based
# Description: Chymase is a proteolytic enzyme with chymotrypsin activity that is released from dermal mast cells upon degranulation. The enzyme has been implicated in proteolytic breakdown of endothelial cell basement membrane matrix proteins and to thereby facilitate leukocyte diapedesis. The release of chymase from mast cells was detected as a depletion of chymase-specific immunohistochemical staining observed in cryosections of the dermis in skin organ cultures. As a positive control 5 mM of morphine sulfate (MSO4 + ctrl) was added to the culture medium bathing the skin organ cultures. The negative control was untreated culture medium (SCM-ctrl). Cis-urocanic acid was added to the culture medium at 1 µg/ml and 10 µg/ml.
# [7] = system: BALB/c female mice; assay: Contact hypersensitivity, TNBS sensitization / TNCB ear challenge (ear swelling); format: in vivo
# [8] = 2 mg (1%) HPMC gel pretreat, DNCB 100 µg, 24 Hours
# [9] = 2 mg (1%) HPMC gel pretreat, DNCB 100 µg, 72 Hours
# [10] = 10 mg (5%) HPMC gel pretreat, DNCB 100 µg, 24 Hours
# [11] = 10 mg (5%) HPMC gel pretreat, DNCB 100 µg, 72 Hours
# [12] = 5 Hours Pretreat 15 mg + DNCB 100 µg, 24 Hours
# [13] = 5 Hours Pretreat 15 mg + DNCB 100 µg, 48 Hours
# [14] = 24 Hours Pretreat 10 mg, then DNCB gel 100 µg, 24 Hours
# [15] = 24 Hours Pretreat 10 mg, then DNCB gel 100 µg, 48 Hours
# [16] = 24 Hours Pretreat 15 mg + DNCB 100 µg, 24 Hours
# [17] = 24 Hours Pretreat 15 mg + DNCB 100 µg, 48 Hours
# [18] = Co-Delivery, 10 mg + DNCB 100 µg, 24 Hours
# [19] = Co-Delivery, 10 mg + DNCB 100 µg, 48 Hours
structure (smiles),measurement,setting,value
"O=C(O)/C=C\c1c[nH]cn1 [cis-UCA, cis-urocanic acid]",fluxes through human skin (comparison of isomers),[1],comparable fluxes
same,% SUPPRESSION,"[2]; intradermal injection 200 µg, 24 Hours",48% and 48.4%
same,% SUPPRESSION,"[2]; intradermal injection 200 µg, 48 Hours",32% and 31.6%
same,% SUPPRESSION,"[2]; pretreatment + co-administration, 24 Hours",53%
same,% SUPPRESSION,"[2]; pretreatment only, 6% UCA PBS pH 5.5, 24 Hours",68%
same,% SUPPRESSION,[3]; [8],71%
same,EAR SWELLING,[3]; [8],26 mm X 10^3
same,EAR SWELLING,[3]; [9],48 mm X 10^3
same,EAR THICKNESS,[3]; [9],288 ± 23 mm X 10^3
same,EAR THICKNESS,"[3]; 2 mg (1%) HPMC gel, 24 h pretreatment, DNCB 100 µg, 24 Hours",270 ± 16 mm X 10^3
same,% SUPPRESSION,[3]; [10],80%
same,EAR SWELLING,[3]; [10],18 mm X 10^3
same,EAR THICKNESS,[3]; [10],261 ± 15 mm X 10^3
same,% SUPPRESSION,[3]; [11],59%
same,EAR SWELLING,[3]; [11],30 mm X 10^3
same,EAR THICKNESS,[3]; [11],270 ± 15 mm X 10^3
same,EAR THICKNESS,"[3]; 5 Hours Pretreat 15 mg (7.5% gel) + DNCB 100 µg, 24 Hours",285 ± 27 mm X 10^3
same,% SUPPRESSION,[3]; [12],46%
same,EAR SWELLING,[3]; [12],42 mm X 10^3
same,% SUPPRESSION,[3]; [13],27%
same,EAR SWELLING,[3]; [13],42 mm X 10^3
same,EAR THICKNESS,[3]; [13],284 ± 20 mm X 10^3
same,EAR THICKNESS,"[3]; 24 Hours Pretreat 10 mg (5% gel), then DNCB gel 100 µg, 24 Hours",260 ± 19 mm X 10^3
same,% SUPPRESSION,[3]; [14],52%
same,EAR SWELLING,[3]; [14],29 mm X 10^3
same,% SUPPRESSION,[3]; [15],69%
same,EAR SWELLING,[3]; [15],20 mm X 10^3
same,EAR THICKNESS,[3]; [15],259 ± 12 mm X 10^3
same,EAR THICKNESS,"[3]; 24 Hours Pretreat 15 mg (7.5% gel) + DNCB 100 µg, 24 Hours",288 ± 25 mm X 10^3
same,% SUPPRESSION,[3]; [16],59%
same,EAR SWELLING,[3]; [16],47 mm X 10^3
same,% SUPPRESSION,[3]; [17],54%
same,EAR SWELLING,[3]; [17],36 mm X 10^3
same,EAR THICKNESS,[3]; [17],276 ± 14 mm X 10^3
same,EAR THICKNESS,"[3]; Co-Delivery, 10 mg (5% gel) + DNCB 100 µg, 24 Hours",277 ± 27 mm X 10^3
same,% SUPPRESSION,[3]; [18],not statistically significant
same,EAR SWELLING,[3]; [18],39 mm X 10^3
same,% SUPPRESSION,"[3]; Co-Delivery, 10 mg + DNCB 100 µg, 24 Hours, listed as UCA",28%
same,% SUPPRESSION,[3]; [19],29%
same,EAR SWELLING,[3]; [19],43 mm X 10^3
same,EAR THICKNESS,[3]; [19],273 ± 23 mm X 10^3
same,EAR THICKNESS,[4]; 2 mg (1% HPMC gel) day -1,327 ± 60 mm X 10^3
same,% SUPPRESSION,[4]; 2 mg day -1,51%
same,EAR SWELLING,[4]; 2 mg day -1,70 mm X 10^3
same,EAR THICKNESS,[4]; 10 mg (5% HPMC gel) day -1,334 ± 17 mm X 10^3
same,% SUPPRESSION,[4]; 10 mg day -1,42%
same,EAR SWELLING,[4]; 10 mg day -1,84 mm X 10^3
same,appearance of treated skin site,"[5]; 2% gel, 14 hours after initiation of treatment",depressed (appearing normal) and lacked any red color
same,erythema and induration of inflamed skin,"[5]; 2% in hydroxylpropylmethyl cellulose gel, 2-3 cm^2 area, approximately 1 hour after application",erythema and induration disappeared
same,chymase positive mast cell per mm^2,[6]; 1 µg/ml in culture medium,22 ± 20 per mm^2
same,chymase positive mast cell per mm^2,[6]; 10 µg/ml in culture medium,20 ± 10 per mm^2
same,% SUPPRESSION,"[7]; 200 µg, 24 hours before TNBS 3.5 mg, 24 hours after challenge",36%
same,% SUPPRESSION,"[7]; 600 µg, 24 hours before TNBS 3.5 mg, 24 hours after challenge",63%
same,% SUPPRESSION,"[7]; pretreatment + co-administration, TNBS 35 µg, 24 Hours",52.8%
same,% SUPPRESSION,"[7]; pretreatment + co-administration, TNBS 35 µg, 48 Hours",56%
same,% SUPPRESSION,"[7]; pretreatment + co-administration, TNBS 35 µg, 48 Hours, listed as cis-UROCANIC ACID",55.8%
same,% SUPPRESSION,"[7]; pretreatment only, 6% UCA PBS pH 5.5, TNBS 35 µg, 24 Hours",68.3%
same,% SUPPRESSION,"[7]; pretreatment only, 6% UCA PBS pH 5.5, TNBS 35 µg, 48 Hours",77%
same,% SUPPRESSION,"[7]; pretreatment only, 6% UCA PBS pH 5.5, TNBS 35 µg, 48 Hours, listed as cis-UROCANIC ACID",77.2%
"CN1CC[C@]23c4c5ccc(O)c4O[C@H]2[C@@H](O)C=C[C@H]3[C@H]1C5.O=S(=O)(O)O [morphine sulfate, reference compound]",chymase positive mast cell per mm^2,"[6]; 5 mM in culture medium, positive control",37 ± 15 per mm^2
"O=C(O)/C=C/c1cnc[nH]1 [trans-UCA, trans-urocanic acid, reference compound]",fluxes through human skin (comparison of isomers),[1],comparable fluxes
same,suppressive activity on contact sensitization (in words),"[2]; other experiments, compared with cis-UCA",much less suppressive activity
